# Biological target: JAK2 (JH1 domain-catalytic, Y1007F, Y1008F) kinase (Homo sapiens (Human), UniProt O60674, Y1007F/Y1008F)
# Test: JAK2 JH1 Domain Binding Assay
# Conditions: qPCR readout
# How it was run: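 Competitive binding format: test compound, DNA-tagged JAK2 JH1 (Y1007F/Y1008F; HEK293-expressed NFkB fusion) and ligand-coated magnetic beads incubated 1 h at room temperature. Kinase retained on beads released with 0.5 μmol/L non-biotinylated ligand, then measured by qPCR.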
# Sequence of JAK2 (JH1 domain-catalytic, Y1007F, Y1008F) kinase (O60674 849-1124 Y1007F/Y1008F): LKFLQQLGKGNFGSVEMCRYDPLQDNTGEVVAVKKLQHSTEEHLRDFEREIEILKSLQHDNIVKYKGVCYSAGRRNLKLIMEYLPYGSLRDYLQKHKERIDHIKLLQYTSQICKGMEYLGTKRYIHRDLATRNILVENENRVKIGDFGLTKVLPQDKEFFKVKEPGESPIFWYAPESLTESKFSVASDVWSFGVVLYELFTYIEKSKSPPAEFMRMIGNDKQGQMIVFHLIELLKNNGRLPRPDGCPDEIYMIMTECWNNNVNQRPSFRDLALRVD
row,Kd [nM],Compound
1,< 10,"CN(C(=O)Nc1cc(C(F)(F)F)cn(C)c1=O)C1CCN(c2cnc3[nH]cc(F)c3n2)CC1 [Example I-39, 1-(1-(7-fluoro-5H-pyrrolo[2,3-b]pyrazin-2-yl)piperidin-4-yl)-1-methyl-3-(1-methyl-2-oxo-5-(trifluoromethyl)-1,2-dihydropyridin-3-yl)urea]"
2,< 10,"CN(C(=O)Nc1cc(C(F)(F)F)cn(C)c1=O)C12CC(c3cnc4[nH]nc(OC5CCOC5)c4c3)(C1)C2 (mixture of isomers) [Example I-166, (S)-1-methyl-3-(1-methyl-2-oxo-5-(trifluoromethyl)-1,2-dihydropyridin-3-yl)-1-(3-(3-((tetrahydrofuran-3-yl)oxy)-1H-pyrazolo[3,4-b]pyridin-5-yl)bicyclo[1.1.1]pentan-1-yl)urea and (R)-1-methyl-3-(1-methyl-2-oxo-5-(trifluoromethyl)-1,2-dihydropyridin-3-yl)-1-(3-(3-((tetrahydrofuran-3-yl)oxy)-1H-pyrazolo[3,4-b]pyridin-5-yl)bicyclo[1.1.1]pentan-1-yl)urea]"
3,< 10,"CN(C(=O)Nc1cc(C(F)(F)F)cn(C)c1=O)C1CC2(C1)CN(c1cnc3[nH]ncc3c1)C2 [Example I-57, 1-(2-(1H-pyrazolo[3,4-b]pyridin-5-yl)-2-azaspiro[3.3]heptan-6-yl)-1-methyl-3-(1-methyl-2-oxo-5-(trifluoromethyl)-1,2-dihydropyridin-3-yl)urea]"
4,< 10,"CN(C(=O)Nc1cc(C(F)(F)F)cn(C)c1=O)C1CCN(c2cnc3[nH]ncc3n2)CC1 [Example I-68, 1-(1-(1H-pyrazolo[3,4-b]pyrazin-5-yl)piperidin-4-yl)-1-methyl-3-(1-methyl-2-oxo-5-(trifluoromethyl)-1,2-dihydropyridin-3-yl)urea]"
5,< 10,"CN(C(=O)Nc1cc(C(C)(C)C)n([C@H]2CCOC2)n1)C1CCN(c2cnc3[nH]ncc3c2)CC1 [Example I-174, (S)-1-(1-(1H-pyrazolo[3,4-b]pyridin-5-yl)piperidin-4-yl)-3-(5-(tert-butyl)-1-(tetrahydrofuran-3-yl)-1H-pyrazol-3-yl)-1-methylurea]"
6,10 to 50,"Cn1cc(C(F)(F)F)cc(NC(=O)N2CC=CC23CCN(c2cnc4[nH]cc(F)c4n2)CC3)c1=O [Example I-93, 8-(7-fluoro-5H-pyrrolo[2,3-b]pyrazin-2-yl)-N-(1-methyl-2-oxo-5-(trifluoromethyl)-1,2-dihydropyridin-3-yl)-1,8-diazaspiro[4.5]dec-3-ene-1-carboxamide]"
7,10 to 50,"CN(C(=O)Nc1cc(C(F)(F)F)cn(C)c1=O)C1(C)CCN(c2cnc3[nH]cc(F)c3n2)CC1 [Example I-56, 1-(1-(7-fluoro-5H-pyrrolo[2,3-b]pyrazin-2-yl)-4-methylpiperidin-4-yl)-1-methyl-3-(1-methyl-2-oxo-5-(trifluoromethyl)-1,2-dihydropyridin-3-yl)urea]"

# More lines, now with the values behind:
row,Compound,Kd [nM]
1,"CN(C(=O)Nc1cc(C(F)(F)F)cn(C)c1=O)[C@H]1CCN(c2cnc3[nH]ccc3n2)CC1(F)F (single isomer, unassigned) [Example I-27-b]",< 10
2,"C[C@H]1C[C@@H](N(C)C(=O)Nc2cc(C(F)(F)F)cn(C)c2=O)CCN1c1cnc2[nH]ncc2c1 [Example I-105-a, 1-methyl-1-((2S,4S)-2-methyl-1-(1H-pyrazolo[3,4-b]pyridin-5-yl)piperidin-4-yl)-3-(1-methyl-2-oxo-5-(trifluoromethyl)-1,2-dihydropyridin-3-yl)urea]",< 10
3,"CO[C@@H]1CN(c2cnc3[nH]c(C)cc3n2)CC[C@H]1N(C)C(=O)Nc1cc(C(F)(F)F)cn(C)c1=O [Example I-117-a, 1-((3R,4R)-3-methoxy-1-(6-methyl-5H-pyrrolo[2,3-b]pyrazin-2-yl)piperidin-4-yl)-1-methyl-3-(1-methyl-2-oxo-5-(trifluoromethyl)-1,2-dihydropyridin-3-yl)urea]",50 to 1000
4,"COCCOc1n[nH]c2ncc(N3CC[C@@H](N(C)C(=O)Nc4cc(C(F)(F)F)cn(C)c4=O)[C@@H](F)C3)cc12 [Example I-104-a, 1-((3S,4R)-3-fluoro-1-(3-(2-methoxyethoxy)-1H-pyrazolo[3,4-b]pyridin-5-yl)piperidin-4-yl)-1-methyl-3-(1-methyl-2-oxo-5-(trifluoromethyl)-1,2-dihydropyridin-3-yl)urea]",< 10
5,"1-(1-(3-((1R,2R)-2-hydroxycyclobutoxy)-1H-pyrazolo[3,4-b]pyridin-5-yl)piperidin-4-yl)-1-methyl-3-(1-methyl-2-oxo-5-(trifluoromethyl)-1,2-dihydropyridin-3-yl)urea and 1-(1-(3-((1S,2S)-2-hydroxycyclobutoxy)-1H-pyrazolo[3,4-b]pyridin-5-yl)piperidin-4-yl)-1-methyl-3-(1-methyl-2-oxo-5-(trifluoromethyl)-1,2-dihydropyridin-3-yl)urea [Example I-184-b]",1000 to 5000
6,"CN(C(=O)Nc1cc(C(F)(F)F)cn(C)c1=O)[C@@H]1CCN(c2cnc(NC(=O)C3CC3)cn2)CC1(F)F (single isomer, unassigned) [Example I-34-a]",< 10
7,"CN(C(=O)Nc1cc(C(F)(F)F)cn(C)c1=O)[C@H]1CCN(c2cnc3[nH]c(=O)n(C)c3c2)C[C@H]1F [Example I-103-a, 1-((3R,4S)-3-fluoro-1-(1-methyl-2-oxo-2,3-dihydro-1H-imidazo[4,5-b]pyridin-6-yl)piperidin-4-yl)-1-methyl-3-(1-methyl-2-oxo-5-(trifluoromethyl)-1,2-dihydropyridin-3-yl)urea]",< 10
8,"CN(C(=O)Nc1cc(C(F)(F)F)cn(C)c1=O)[C@H]1CCN(c2cnc3[nH]ncc3c2)C[C@H]1F (stereo in doubt) [Example I-62-a, 1-((3R,4S)-3-fluoro-1-(1H-pyrazolo[3,4-b]pyridin-5-yl)piperidin-4-yl)-1-methyl-3-(1-methyl-2-oxo-5-(trifluoromethyl)-1,2-dihydropyridin-3-yl)urea]",< 10
9,"CO[C@@H]1CN(c2cnc3[nH]ncc3c2)CC[C@@H]1N(C)C(=O)Nc1cc(C(F)(F)F)cn(C)c1=O [Example I-88-b, 1-((3R,4S)-3-methoxy-1-(1H-pyrazolo[3,4-b]pyridin-5-yl)piperidin-4-yl)-1-methyl-3-(1-methyl-2-oxo-5-(trifluoromethyl)-1,2-dihydropyridin-3-yl)urea]",< 10
10,"C[C@H]1CN(c2cnc3[nH]ncc3c2)CC[C@@H]1N(C)C(=O)Nc1cc(C(F)(F)F)cn(C)c1=O [Example I-74-a, 1-methyl-1-((3S,4S)-3-methyl-1-(1H-pyrazolo[3,4-b]pyridin-5-yl)piperidin-4-yl)-3-(1-methyl-2-oxo-5-(trifluoromethyl)-1,2-dihydropyridin-3-yl)urea]",< 10
11,"COCc1cc2nc(N3CC[C@@H](N(C)C(=O)Nc4cc(C(F)(F)F)cn(C)c4=O)C[C@H]3C)cnc2[nH]1 [Example I-127-b, 1-((2R,4R)-1-(6-(methoxymethyl)-5H-pyrrolo[2,3-b]pyrazin-2-yl)-2-methylpiperidin-4-yl)-1-methyl-3-(1-methyl-2-oxo-5-(trifluoromethyl)-1,2-dihydropyridin-3-yl)urea]",50 to 1000
12,"CN(C(=O)Nc1cc(C(F)(F)F)cn(C)c1=O)[C@H]1CC=C(c2cnc3[nH]ncc3n2)CC1 (single isomer, unassigned) [Example I-160-b, (S)- or (R)-1-(4-(1H-pyrazolo[3,4-b]pyrain-5-yl)cyclohex-3-en-1-yl)-1-methyl-3-(2-methyl-2-oxo-5-(trifluoromethyl)-1,2-dihydropyridin-3-yl)urea]",< 10

# Reference: patent publication US20240116892A1, “HETEROCYCLIC AMIDE AND UREA COMPOUNDS AS JAK2 INHIBITORS” (Ajax Therapeutics, Inc., priority 2022, published 2024)
